# Results reported in patent publication US20090111781A1, “Use of Cymipristone Type Compounds in Aids Treatment” (SHANGHAI THREE-ALLIANCE BIOTECHNOLOGIES CO., LTD., priority 2005, published 2009).
# Key:
# in vitro = conditions: human
# Procedure: (§1) Collect cells with curette, infect cells with 10^−2 AZT sensitive (018a) or AZT resistant (018c) virus strain liquid, and adsorb for 2 hours, Wash off unabsorbed virus with 1640 culture medium without serum, prepare cells infected by virus to 1×10^6/ml with culture solution, and inoculate on 96-pore culture plate, 100 μl/pore. […] Set cell control group and virus infected cell control group. Incubate under 37° C. and 5% CO2. On the fourth day (96 hours), pipette out the supernatant liquid and store under −20° C. for determination of HIV-1 P24 antigen titer and calculation of drug inhibitory action. Add MTT staining to cells for determination of cytotoxicity. Determination of cytotoxicity by MTT staining: Add 10 μl of 5 mg/ml MTT stain into each pore, continue to incubate under 37° C., 5% CO2 and saturated humidity for 4 hours. […] Determine the HIV-1 P24 antigen titer according to the operation procedure provided by the HIV-1 P24 antigen reagent kit. Compare the drug-added group with virus control group. […] Calculation method of 50% toxic concentration (CC50), 50% effective concentration (EC50) and selection index (SI): […]
# [1] = test system: HIV-1 AZT-sensitive strain 018a P24 antigen; experiment: Inhibition of HIV-1 018a P24 antigen in PBMC cell culture; assay type: cell-based; conditions: for EC50: Human immunodeficiency virus 1, PBMC, 2 h, administration after adsorbing 2 hours
# Procedure: (§2) Collect cells with curette, infect cells with 10^−2 AZT sensitive (018a) or AZT resistant (018c) virus strain liquid, and adsorb for 2 hours, Wash off unabsorbed virus with 1640 culture medium without serum, prepare cells infected by virus to 1×10^6/ml with culture solution, and inoculate on 96-pore culture plate, 100 μl/pore. […] Set cell control group and virus infected cell control group. Incubate under 37° C. and 5% CO2. On the fourth day (96 hours), pipette out the supernatant liquid and store under −20° C. for determination of HIV-1 P24 antigen titer and calculation of drug inhibitory action. Add MTT staining to cells for determination of cytotoxicity. Determination of cytotoxicity by MTT staining: Add 10 μl of 5 mg/ml MTT stain into each pore, continue to incubate under 37° C., 5% CO2 and saturated humidity for 4 hours. […] Determine the HIV-1 P24 antigen titer according to the operation procedure provided by the HIV-1 P24 antigen reagent kit. Compare the drug-added group with virus control group. […] Calculation method of 50% toxic concentration (CC50), 50% effective concentration (EC50) and selection index (SI):
# (§3) (3) Calculation Method of Selection Index (SI) on HIV-1 P24 Antigen in Cell Culture SI=CC50/EC50
# [2] = MTT toxicity on PBMC infected by HIV-1 AZT-resistant strain 018c; conditions: human
# Procedure: as §1
# [3] = test system: HIV-1 AZT-resistant strain 018c P24 antigen; experiment: Inhibition of HIV-1 018c P24 antigen in PBMC cell culture; assay type: cell-based; conditions: 018c; for EC50: Human immunodeficiency virus 1, PBMC, 2 h, PBMC, administration after adsorbing 2 hours; for SI: SI=CC50/EC50
# Procedure: as §2, §3
# [4] = target: T1, glucocorticoid receptor of rat hepatic cytoplasm (Rattus norvegicus, UniProt P06536); experiment: Competition inhibition of [3H]-dexamethasone binding in rat hepatic cytoplasm; conditions: read-out: Inhibition rate on binding of [3H]-dexamethasone
# T1 construct: centrifuge at 175000 g for 1 hour, and take out the supernatant liquid as reserve; from tissue; host or cells: liver cytosol (175000 g supernatant) of adrenalectomised female SD rats
# T1 sequence (P06536 1-795): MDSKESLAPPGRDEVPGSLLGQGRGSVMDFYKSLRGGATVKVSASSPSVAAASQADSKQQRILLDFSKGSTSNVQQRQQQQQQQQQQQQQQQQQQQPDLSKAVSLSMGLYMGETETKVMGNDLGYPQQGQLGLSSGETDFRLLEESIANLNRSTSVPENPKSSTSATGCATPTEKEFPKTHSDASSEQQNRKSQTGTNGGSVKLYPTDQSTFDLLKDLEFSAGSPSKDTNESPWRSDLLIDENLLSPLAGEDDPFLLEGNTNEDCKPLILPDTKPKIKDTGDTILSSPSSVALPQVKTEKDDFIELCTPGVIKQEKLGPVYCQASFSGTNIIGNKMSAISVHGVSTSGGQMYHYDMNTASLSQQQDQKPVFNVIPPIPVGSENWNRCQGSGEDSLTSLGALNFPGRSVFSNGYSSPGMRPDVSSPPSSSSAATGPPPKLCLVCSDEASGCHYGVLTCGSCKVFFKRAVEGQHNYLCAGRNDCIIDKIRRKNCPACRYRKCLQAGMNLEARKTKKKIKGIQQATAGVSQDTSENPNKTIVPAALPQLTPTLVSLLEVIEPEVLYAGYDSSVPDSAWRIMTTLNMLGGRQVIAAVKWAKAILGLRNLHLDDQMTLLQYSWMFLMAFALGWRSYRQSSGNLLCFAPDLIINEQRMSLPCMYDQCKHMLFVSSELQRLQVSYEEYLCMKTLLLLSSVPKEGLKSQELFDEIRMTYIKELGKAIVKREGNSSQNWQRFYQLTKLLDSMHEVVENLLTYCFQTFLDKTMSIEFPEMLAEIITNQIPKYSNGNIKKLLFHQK
# Procedure: Clean female SD rats, body weight 200-250 g, are fed with certain quantity of food and freely drink water. The temperature is controlled at about 24° C. and an illumination cycle are for 11 hours by day and 13 hours at night. All animals are observed for 1 week before experiment. Incisions are made on two sides below arch of ribs on dorsal position of rats to extirpate adrenal glands. After operation, the rats are fed with physiological saline to maintain water-electrolyte balance. On the third day after operation, animals are acutely executed. The liver is taken out immediately and placed in ice cold buffer solution; the blood should be washed off as much as possible. Take certain quantity of tissue, add buffer solution (1:4), cut the tissue with scissors, intermittently homogenize the tissue under low temperature, centrifuge at 175000 g for 1 hour, and take out the supernatant liquid as reserve. […] Then carry out the competition inhibition experiment.
# thymus gland cells = experiment: Anti-glucocorticoid activity test, [3H]-TdR incorporation in rat thymus gland cells; assay type: cell-based; conditions: dexamethasone 6×10^−8 mol/L used singly
# Procedure: Clean female SD rats, body weight 200-250 g, are fed with certain quantity of food and freely drink water. The temperature is controlled at about 24° C. and an illumination cycle are for 11 hours by day and 13 hours at night. All animals are observed for 1 week before experiment. Rats are anesthetized with ethyl ether. Incisions are made on two sides below costal arch of ribs on dorsal position of rats to extirpate adrenal glands. The rats are fed with physiological saline after operation. On the seventh day, animals are acutely executed. Take out thymus gland to place in to HBSS buffer solution, wash twice, remove connective tissue, cut the tissue with scissors, lightly grind with homogenizer, filter with three layers of gauze, and centrifuge the filtrate for 5 min (500 rpm). Wash the precipitated cells twice with HBSS, re-suspend the cells in RPMI1640 culture medium for cell count and cell survival rate determination, and adjust cell concentration to 1×10^7/ml. Determination of anti-glucocorticoid activity: Add tested compound into culture medium, reaction concentration 6×10^−[…], and place in 37° C. incubator for 3 hours. Add thymus gland cells to make cell concentration to become 10^7/ml and incubate at 37° C. for 3 hours. Add 1 μCi of label substance, mix, and incubate for 1 hour. Add 100 μl of ice cold 5% trichloroacetic acid to end the reaction. Place the test tube on ice and wash twice with 2 ml of ice cold 5% trichloroacetic acid and centrifuge twice, 500 rpm×5 min, Add 0.5 ml of 1N NaOH to dissolve the precipitated cells, pipet out the liquid, dry the residue with cotton stick, place into same scintillation bottle, and determine the radioactivity by liquid scintillation counter.
# Calculate the incorporation rate of [^3H]-TdR:
# In which: T=[^3H]-TdR count without presence of compound, Td=count with presence of compound, and NSB=non-specific adsorption.
# Inhibition rate=100%−incorporation rate
# [5] = 50% toxic concentration CC50, Average
# [6] = 50% toxic concentration CC50, Experiment 1
# [7] = 50% toxic concentration CC50, Experiment 2
SMILES,"EC50 ([1]; Average, PBMC) [µg/mL]","EC50 ([1]; Experiment 1, PBMC) [µg/mL]","EC50 ([1]; Experiment 2, PBMC) [µg/mL]","CC50 at 96 h [2, 5] [µg/mL]","CC50 at 96 h [2, 6] [µg/mL]","CC50 at 96 h [2, 7] [µg/mL]",EC50 ([3]; Average) [µg/mL],EC50 ([3]; Experiment 1) [µg/mL],EC50 ([3]; Experiment 2) [µg/mL],further results
"Cc1cn([C@H]2C[C@H](N=[N+]=[N-])[C@@H](CO)O2)c(=O)[nH]c1=O [AZT, zidovudine]",< 0.0064,< 0.0061,< 0.0064,74.3,70.7,77.9,0.054,0.047,0.061,"CC50 at 96 h (in vitro; 50% toxic concentration CC50): 58.8 µg/mL; SI ([1]; SI=CC50/EC50, Average): 10275.78; SI ([1]; SI=CC50/EC50, Experiment 1): 9193.75; SI ([1]; SI=CC50/EC50, Experiment 2): 11357.81; SI ([3]; Average): 1390.87; SI ([3]; Experiment 1): 1504.68; SI ([3]; Experiment 2): 1277.05"
"C[C@@H]1C[C@H]2[C@@H]3CCC4=CC(=O)C=C[C@]4(C)[C@@]3(F)[C@@H](O)C[C@]2(C)[C@@]1(O)C(=O)CO [Dexamethasone, dexamethasone]",,,,,,,,,,inhibition at 0.0008 µM [4]: 14.7 ± 7.34%; inhibition at 0.0016 µM [4]: 10.4 ± 6.11%; inhibition at 0.004 µM [4]: 24.8 ± 5.92%; inhibition at 0.02 µM [4]: 39.4 ± 4.83%; inhibition at 0.1 µM [4]: 60.4 ± 5.67%; inhibition at 0.5 µM [4]: 89.2 ± 8.56%; Incorporation rate of [3H]-TdR (thymus gland cells): 43.2%±3.7
"CC#C[C@]1(O)CC[C@H]2[C@@H]3CCC4=CC(=O)CCC4=C3[C@@H](c3ccc(N(C)C)cc3)C[C@@]21C [Mifepristone, mifepristone]",12.4,12.4,12.4,89.9,105,74.7,10.1,10.4,9.84,"CC50 at 96 h (in vitro; 50% toxic concentration CC50, Average, PBMC, 018a): 83.6 µg/mL; CC50 at 96 h (in vitro; 50% toxic concentration CC50, Experiment 1, PBMC, 018a): 69.4 µg/mL; CC50 at 96 h (in vitro; 50% toxic concentration CC50, Experiment 2, PBMC, 018a): 97.8 µg/mL"
